From patent publication US10981932B2, “Macrocyclic indole derivatives” (Bayer Aktiengesellschaft, priority 2016, dated 2021) come the findings set out here.

One series has as its target T1, BCL-XL (Homo sapiens, UniProt Q07817).
T1 construct: BCL-XL (amino acids 1-212, C-terminal fused to a hexahistidine (6×His) tag); purchased BPS Bioscience (San Diego, Calif., USA); host or cells: E. coli
Briefly: Protein-protein interaction assay BCL-XL/Bad BH3 peptide (BCL-XL assay), TR-FRET. Type of series: binding. To be noted: His-BCL-XL / Bad BH3-derived peptide. The procedure, abridged:
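TR-FRET competition of His-tagged human BCL-XL (1 nM final) with biotinylated Bad BH3 peptide, 11 compound concentrations 0.1 nM–20 μM, in Tris pH 7 buffer with NaCl, KF, DTT, BGG. 10 min pre-incubation, then 1 h at 22 °C plus overnight at 4 °C; 665/620 nm ratio normalized, IC50 from 4-parameter fit.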
(TR-FRET usually uses a lanthanide donor and a delayed reading to cut background.)

Series [1] has as its system SUDHL10. The experiment in a line: Induction of caspase-3/7 activity (Caspase-Glo 3/7), SUDHL10. Type of series: cell-based. The conditions noted are these: caspase-3/7 induction, SUDHL10 cells, 3 h treatment; median. The gist of the method:
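A 3 h, 37 °C compound incubation precedes the Caspase-Glo 3/7 read. After subtracting medium-only signal, EC50s are fitted against the reference compound's maximal caspase induction.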

Series [2] deals with SUDHL5. Briefly: Anti-proliferative effect (CellTiter-Glo, 72 h), SUDHL5. Type of series: cell-based. To be noted: SUDHL5 cells, antiproliferation, 72 h incubation, median, read-out: Antiproli SUDHL5 [M] (median). The procedure, abridged:
(§1)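 Endpoint: CellTiter-Glo luminescence, 10 min after reagent addition. Treatment ran 72 h at 37 °C, humidified. Growth was referenced to a separately plated day 0 plate.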
For orientation: In ATP-based viability assays light output follows the ATP content of the culture.

Series [3] has as its system SUDHL10. Briefly: Anti-proliferative effect (CellTiter-Glo, 72 h), SUDHL10. In kind it is cell-based. To be noted: SUDHL10 cells, antiproliferation, 72 h incubation, median, read-out: Antiproli SUDHL10 [M] (median). The procedure, abridged:
as §1

In a further series the test system is A2780. The experiment in a line: Anti-proliferative effect (CellTiter-Glo, 72 h), A2780. Type of series: cell-based. The conditions noted are these: A2780 cells, median, read-out: IC50 antiproliferation assay A2780 [M] (median). The gist of the method:
as §1

The test system of series [4] is SUDHL5. The experiment in a line: Induction of cytotoxicity (CellTiter-Glo, 5 h), SUDHL5. To be noted: read-out: Cytotox SUDHL5 [M] (median); SUDHL5 cells, cytotoxicity induction, CellTiter-Glo, 5 h incubation, median.
For series [5], the system named is SUDHL10. The experiment in a line: Induction of cytotoxicity (CellTiter-Glo, 5 h), SUDHL10. The conditions noted are these: read-out: Cytotox SUDHL10 [M] (median); SUDHL10 cells, cytotoxicity induction, CellTiter-Glo, 5 h incubation, median.

Several values for one entry are separate records, joined by “and”; a condition that tells them apart may be missing. Equal values may be shown once. Where a name gives a salt, the structure may show the parent alone. Read-outs that look alike come from different tables or passages of the source.

In general, EC50 refers to the concentration that produces a half-maximal response. High values mean lower potency in that assay, low ones higher potency in that assay.

T1 sequence (Q07817 1-212): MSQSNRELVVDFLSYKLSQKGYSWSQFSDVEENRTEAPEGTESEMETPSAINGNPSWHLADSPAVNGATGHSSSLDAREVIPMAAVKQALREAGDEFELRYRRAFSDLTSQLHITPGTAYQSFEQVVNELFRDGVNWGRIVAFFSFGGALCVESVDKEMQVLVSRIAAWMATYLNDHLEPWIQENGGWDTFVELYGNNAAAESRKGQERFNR

As to `CCc1c2c(nn1C)CN(C)CCCn1c(C(=O)O)c(CCCOc3cccc4ccccc34)c3ccc(C)c-2c31` (single isomer, unassigned; enantiomer 1) [Example 145, 11-Ethyl-7,10,12-trimethyl-1-[3-(1-naphthyloxy)propyl]-4,5,6,7,8,10-hexahydropyrazolo[3′,4′:7,8][1,5]diazecino[9,10,1-hi]indole-2-carboxylic acid-N-ethylethanamine Salt (Enantiomer 1)], the IC50 at BCL-XL is more than 20 µM; in the series with SUDHL5 [2], 1.85e-06 M; with SUDHL10 [3] it was 4.25e-06 M; with A2780 (Homo sapiens, A2780, 72 h) it was 1.36e-05 M; in the series on SUDHL5 [4], 1.4e-06 M; in the series with SUDHL10 [5] it was 2.4e-06 M. The response with SUDHL10 [1] was half-maximal at 2.57 µM (EC50).

For the molecule `CCc1c2c(nn1C)COCCCCn1c(C(=O)O)c(CCCOc3cccc4ccccc34)c3cccc-2c31` (single isomer, unassigned; enantiomer 1) [Example 148, 3-Ethyl-2-methyl-7-[3-(1-naphthyloxy)propyl]-2,10,11,12,13,15-hexahydropyrazolo[4′,3′:9,10][1,6]oxazacycloundecino[8,7,6-hi]indole-8-carboxylic acid-N-ethylethanamine Salt (Enantiomer 1)], the IC50 on BCL-XL was more than 20 µM; in the series with SUDHL5 [2], 2.56e-06 M; in the series with SUDHL10 [3] (Homo sapiens, SU-DHL10, 72 h) it was 5.87e-06 M; with A2780 (Homo sapiens, A2780, 72 h), 2e-05 M; in the series on SUDHL5 [4], 9.08e-07 M; in the series with SUDHL10 [5] it was 2.4e-06 M. In the series on SUDHL10 [1], this molecule came in with an EC50 of 3.48 µM.

With `CCc1c2c(nn1C)COCCCCn1c(C(=O)O)c(CCCOc3cccc4ccccc34)c3ccc(C)c-2c31` (single isomer, unassigned; enantiomer 1) [Example 154, 3-Ethyl-2,4-dimethyl-7-[3-(1-naphthyloxy)propyl]-2,10,11,12,13,15-hexahydropyrazolo[4′,3′:9,10][1,6]oxazacycloundecino[8,7,6-hi]indole-8-carboxylic acid-N-ethylethanamine Salt (Enantiomer 1)], the IC50 is more than 20 µM against BCL-XL; 2.26e-06 M in the series with SUDHL5 [2]; 4.11e-06 M with SUDHL10 [3] (Homo sapiens, SU-DHL10, 72 h); 1.72e-05 M in the series with A2780 (Homo sapiens, A2780, 72 h); 1.08e-06 M in the series on SUDHL5 [4]; 2.03e-06 M with SUDHL10 [5]. In addition, the EC50 in the series with SUDHL10 [1] stood at 1.7 µM.

With `Cn1nc(COc2ccc(N3CCN(S(C)(=O)=O)CC3)cc2)c2c1COCCCCn1c(C(=O)O)c(CCCOc3cccc4ccccc34)c3cccc-2c31` (single isomer, unassigned; enantiomer 2) [Example 1-10, 1-methyl-3-({4-[4-(methylsulfonyl)piperazin-1-yl]phenoxy}methyl)-7-[3-(naphthalen-1-yloxy)propyl]-1,10,11,12,13,15-hexahydropyrazolo[4′,3′:9,10][1,6]oxazacycloundecino[8,7,6-hi]indole-8-carboxylic acid (enantiomer 2)], the IC50 was more than 20 µM against BCL-XL; 1.26e-06 M in the series with SUDHL5 [2]; 1.35e-06 M with SUDHL10 [3]; 1.19e-05 M in the series with A2780; 4.33e-07 M in the series with SUDHL5 [4]; 4.74e-07 M in the series on SUDHL10 [5]. In addition, the EC50 with SUDHL10 [1] is 0.755 µM.

On to `Cn1nc(COc2ccc(N3CCN(S(=O)(=O)C4CC4)CC3)cc2)c2c1COCCCCn1c(C(=O)O)c(CCCOc3cccc4ccccc34)c3cccc-2c31` (single isomer, unassigned; enantiomer 2) [Example 1-13, 3-({4-[4-(cyclopropylsulfonyl)piperazin-1-yl]phenoxy}methyl)-1-methyl-7-[3-(naphthalen-1-yloxy)propyl]-1,10,11,12,13,15-hexahydropyrazolo[4′,3′:9,10][1,6]oxazacycloundecino[8,7,6-hi]indole-8-carboxylic Acid (Enantiomer 2)], for which the IC50 against BCL-XL is more than 20 µM; in the series with SUDHL5 [2] it was 7.58e-07 M; with SUDHL10 [3], 1.38e-06 M; with A2780 it was 7.74e-06 M; with SUDHL5 [4], 4.1e-07 M; in the series on SUDHL10 [5], 4.36e-07 M. This molecule also yielded an EC50 in the series on SUDHL10 [1] of 0.614 µM.

Consider `Cc1nn(C)c2c1-c1cccc3c(CCCOc4ccc(F)c5ccccc45)c(C(=O)O)n(c13)CCCCOC2` (single isomer, unassigned; enantiomer 2) [Example 023, 7-{3-[(4-fluoronaphthalen-1-yl)oxy]propyl}-1,3-dimethyl-1,10,11,12,13,15-hexahydropyrazolo[4′3′:9,10][1,6]oxazacycloundecino[8,7,6-hi]indole-8-carboxylic acid-N-ethylethanamine Salt (Enantiomer 2)], for which the IC50 was more than 20 µM on BCL-XL; 4.32e-06 M in the series with SUDHL5 [2]; 9.57e-06 M with SUDHL10 [3]; 2e-05 M and > 3.3e-05 M in the series on A2780; 1.84e-06 M with SUDHL5 [4]; 5.85e-06 M with SUDHL10 [5]. Moreover, the concentration giving a half-maximal response (EC50) in the series on SUDHL10 [1] worked out at 7.46 µM.

On to `Cc1c2c(nn1CCN1CCOCC1)CN(C)CCCn1c(C(=O)O)c(CCCOc3cccc4ccccc34)c3cccc-2c31` (single isomer, unassigned; enantiomer 2) [Example 061, 7,11-dimethyl-10-[2-(morpholin-4-yl)ethyl]-1-[3-(naphthalen-1-yloxy)propyl]-4,5,6,7,8,10-hexahydropyrazolo[3′,4′:7,8][1,5]diazecino[9,10,1-hi]indole-2-carboxylic Acid (Enantiomer 2)], for which the IC50 on BCL-XL was more than 20 µM; with SUDHL5 [2], 8.04e-06 M; in the series with SUDHL10 [3], 8.37e-06 M; in the series with A2780, 1.14e-05 M; in the series on SUDHL5 [4] it was 1.63e-05 M; in the series with SUDHL10 [5] it was 1.75e-05 M. For the same molecule, the EC50 with SUDHL10 [1] turned out to be 18.6 µM.

In the case of `Cc1ccc2c(CCCOc3cccc4ccccc34)c(C(=O)O)n3c2c1-c1c(nn(C)c1C)CN(C)CCC3` (single isomer, unassigned; enantiomer 2) [Example 074, 7,10,11,12-tetramethyl-1-[3-(naphthalen-1-yloxy)propyl]-4,5,6,7,8,10-hexahydropyrazolo[3′,4′:7,8][1,5]diazecino[9,10,1-hi]indole-2-carboxylic Acid (Enantiomer 2)], the IC50 against BCL-XL was more than 20 µM; in the series on SUDHL5 [2], 1.14e-05 M; in the series with SUDHL10 [3], 1.26e-05 M; in the series on A2780, 1.3e-05 M; in the series on SUDHL5 [4] it was 1.2e-05 M; in the series with SUDHL10 [5] it was 1.17e-05 M. In the series with SUDHL10 [1], this molecule displayed an EC50 of more than 33 µM.
